Results on 49 compounds are retold here after US9469645B2, “Compounds and compositions for the treatment of parasitic diseases” (Novartis AG, priority 2009, dated 2016).

In one assay the test system is W2 strain. The assay can be described thus: parasite proliferation assay in infected red blood cells (SYBR Green I), W2 strain. It is filed as cell-based. The following applies: Erythrocyte. The source says:
Compounds of the invention can be assayed to measure their capacity to inhibit proliferation of parasitemia in infected red blood cells. The proliferation is quantified by the addition of SYBR Green I (INVITROGEN)® dye which has a high affinity for double stranded DNA.

The next assay relates to 3D7 P. falciparum strain. As to the kind of experiment: parasite proliferation assay in infected red blood cells (SYBR Green I). The format is cell-based, Plasmodium falciparum. The note with it: Plasmodium falciparum, 3D7, Erythrocyte, 3D7 strain; read-out: EC50 3D7 strain. A digest of the protocol: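 P. falciparum 3D7 grown in O+ human erythrocytes to 3–8% parasitemia and exposed to compounds. Proliferation read as the increase in parasite DNA. Detection used SYBR Green I in saponin/triton-X/EDTA lysis buffer, with overnight lysis at room temperature.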

A word on the EC50: it is the concentration needed to bring the measured effect to its halfway point. On to `Cc1c(Cc2ccccc2)nc2n1[C@H](CCc1ccccc1)CN(C(=O)c1cccnc1)[C@H]2Cc1ccccc1` [Compound 283], for which the EC50 is 3490 nM in the assay with W2 strain and 5520 nM in the assay on 3D7 P. falciparum strain.

As to `Cc1ccc(Nc2c(-c3ccc(F)cc3)nc3n2CCN(C(=O)[C@H](N)CO)C3)cc1` [Compound 284], the EC50 came to 37 nM in the assay with W2 strain and 50 nM in the assay on 3D7 P. falciparum strain.

Regarding `Cc1ccc(Nc2c(-c3ccc(F)cc3)nc3n2CCN(C(=O)[C@H](N)[C@H](C)O)C3)cc1` [Compound 285], the EC50 in the assay with W2 strain amounted to 177 nM; in the assay on 3D7 P. falciparum strain, 180 nM.

For the compound `Cc1ccc(Nc2c(-c3ccc(F)cc3)nc3n2CCN(C(=O)[C@@H](N)CCS(C)(=O)=O)C3)cc1` [Compound 286], the EC50 with W2 strain was 1500 nM; with 3D7 P. falciparum strain, 1380 nM.

For the compound `Cc1ccc(Nc2c(-c3ccc(F)cc3)nc3n2CCN(C(=O)[C@H](N)CC(=O)O)C3)cc1` [Compound 287], the EC50 with W2 strain is 7260 nM; in the assay with 3D7 P. falciparum strain it was 4360 nM.

For `Cc1ccc(Nc2c(-c3ccc(F)cc3)nc3n2CCN(C(=O)[C@@H](N)CS(C)(=O)=O)C3)cc1` [Compound 288], the EC50 is 1390 nM in the assay on W2 strain and 890 nM in the assay on 3D7 P. falciparum strain.

In the case of `Cc1c(Cc2ccccc2)nc2n1[C@H](CCc1ccccc1)C(=O)N[C@@H]2Cc1ccccc1` [Compound 289, (5R,8R)-2,8-dibenzyl-3-methyl-5-phenethyl-7,8-dihydroimidazo[1,2-a]pyrazin-6(5H)-one], the EC50 in the assay with W2 strain is 747 nM; with 3D7 P. falciparum strain, 3880 nM.

As for `CCC(=O)N[C@H](C(=O)N1CCn2c(nc(-c3ccc(F)cc3)c2Nc2ccc(C)cc2)C1)c1ccccc1` [Compound 290], the EC50 is 397 nM with W2 strain and 440 nM in the assay on 3D7 P. falciparum strain.

In the case of `CCCC(=O)N[C@H](C(=O)N1CCn2c(nc(-c3ccc(F)cc3)c2Nc2ccc(C)cc2)C1)c1ccccc1` [Compound 291], the figures for the EC50 in the assay on W2 strain and with 3D7 P. falciparum strain were 567 nM and 1200 nM, respectively.

With `CN(c1ccc(Cl)c(F)c1)c1c(-c2ccc(F)cc2)nc2n1CCNC2` [Compound 292, N-(4-chloro-3-fluorophenyl)-2-(4-fluorophenyl)-N-methyl-5,6,7,8-tetrahydro imidazo[1,2-a]pyrazin-3-amine], the EC50 in the assay with W2 strain is 156 nM; in the assay on 3D7 P. falciparum strain, 150 nM.

For the compound `CN(c1ccc(Cl)c(F)c1)c1c(-c2ccc(F)cc2)nc2n1CCN(C(=O)C(C)(C)N)C2` [Compound 294], the EC50 in the assay with W2 strain is 113 nM; with 3D7 P. falciparum strain it was 110 nM.

With `CCCCN[C@H](C(=O)N1CCn2c(nc(-c3ccc(F)cc3)c2Nc2ccc(C)cc2)C1)c1ccccc1` [Compound 295], the EC50 with W2 strain was determined as 283 nM; with 3D7 P. falciparum strain, 210 nM.

Turning to `CCCCCN[C@H](C(=O)N1CCn2c(nc(-c3ccc(F)cc3)c2Nc2ccc(C)cc2)C1)c1ccccc1` [Compound 296], the EC50 in the assay on W2 strain worked out at 424 nM; with 3D7 P. falciparum strain it was 280 nM.

Regarding `CC(C)(C)Nc1c(-c2ccc(F)cc2)nc2n1CCNC2` [Compound 297, N-tert-butyl-2-(4-fluorophenyl)-5,6,7,8-tetrahydroimidazo[1,2-a]pyrazin-3-amine], the EC50 in the assay with W2 strain worked out at 8500 nM; with 3D7 P. falciparum strain it was 5290 nM.

In the case of `Cc1ccc(Nc2c(-c3ccc(F)cc3)nc3n2CCN(C(=O)[C@@H](NC(=O)CCOCCOCCOCCOCCNC(=O)CCCCC2SCC4NC(=O)NC42)c2ccccc2)C3)cc1` (some centres unmarked) [Compound 298], the EC50 in the assay on W2 strain came out at 193 nM; in the assay with 3D7 P. falciparum strain, 610 nM.

For `Cc1ccc(N2Cc3nc(-c4ccc(F)cc4)c(N)n3CC2=O)cc1` [Compound 299], the EC50 in the assay on W2 strain was 9400 nM; in the assay with 3D7 P. falciparum strain, over 8740 nM.

For `Cc1ccc(Nc2c(-c3ccc(F)cc3)nc3n2CC(=O)NC3)cc1` [Compound 300], the EC50 amounted to 1170 nM with W2 strain and 1110 nM with 3D7 P. falciparum strain.

For the compound `COC[C@H](N)C(=O)N1CCn2c(nc(-c3ccc(F)cc3)c2Nc2ccc(Cl)c(F)c2)C1` [Compound 301], the EC50 with W2 strain was 47 nM; in the assay on 3D7 P. falciparum strain, 30 nM.

Take `O=C(Cc1ccncc1)N1CCn2c(nc(-c3ccc(F)cc3)c2Nc2ccc(Cl)c(F)c2)C1` [Compound 302]: the half-maximal effective concentration (EC50) was found to be 149 nM in the assay with W2 strain and 170 nM in the assay with 3D7 P. falciparum strain.

As for `O=C(Cn1ccc2ccccc21)N1CCn2c(nc(-c3ccc(F)cc3)c2Nc2ccc(Cl)c(F)c2)C1` [Compound 303], the EC50 with W2 strain amounted to 439 nM; with 3D7 P. falciparum strain, 540 nM.

For `CCN1CCC(CC(=O)N2CCn3c(nc(-c4ccc(F)cc4)c3Nc3ccc(Cl)c(F)c3)C2)CC1` [Compound 304], the EC50 came out at 2950 nM with W2 strain and 3210 nM with 3D7 P. falciparum strain.

Take `O=C(CNc1ccccc1)N1CCn2c(nc(-c3ccc(F)cc3)c2Nc2ccc(Cl)c(F)c2)C1` [Compound 305]: the EC50 in the assay with W2 strain was 94 nM; in the assay on 3D7 P. falciparum strain it was 90 nM.

On to `O=C(Cc1n[nH]c2ccccc12)N1CCn2c(nc(-c3ccc(F)cc3)c2Nc2ccc(Cl)c(F)c2)C1` [Compound 306], for which the EC50 with W2 strain is 334 nM; in the assay on 3D7 P. falciparum strain, 420 nM.

As to `CCCNCC(=O)N1CCn2c(nc(-c3ccc(F)cc3)c2Nc2ccc(C)cc2)C1` [Compound 307], the EC50 in the assay on W2 strain came out at 22 nM; in the assay with 3D7 P. falciparum strain, 30 nM.

As to `CCCCCNCC(=O)N1CCn2c(nc(-c3ccc(F)cc3)c2Nc2ccc(C)cc2)C1` [Compound 308], the EC50 in the assay with W2 strain was 68 nM; in the assay on 3D7 P. falciparum strain, 60 nM.

With `COCCNCC(=O)N1CCn2c(nc(-c3ccc(F)cc3)c2Nc2ccc(C)cc2)C1` [Compound 309], the EC50 worked out at 68 nM in the assay on W2 strain and 80 nM in the assay on 3D7 P. falciparum strain.

On to `COCCCNCC(=O)N1CCn2c(nc(-c3ccc(F)cc3)c2Nc2ccc(C)cc2)C1` [Compound 310], for which the EC50 with W2 strain stood at 397 nM; with 3D7 P. falciparum strain it was 520 nM.

With `N[C@H](Cc1ccccc1)C(=O)N1CCn2c(nc(-c3ccc(F)cc3)c2Nc2ccc(Cl)c(F)c2)C1` [Compound 311], the EC50 in the assay on W2 strain was 72 nM; in the assay with 3D7 P. falciparum strain, 90 nM.

In the case of `C[C@H](OCc1ccccc1)[C@H](N)C(=O)N1CCn2c(nc(-c3ccc(F)cc3)c2Nc2ccc(Cl)c(F)c2)C1` [Compound 312], the results for the EC50 in the assay with W2 strain and in the assay on 3D7 P. falciparum strain were 897 nM and 1640 nM, respectively.

In the case of `CC(C)[C@H](N)C(=O)N1CCn2c(nc(-c3ccc(F)cc3)c2Nc2ccc(Cl)c(F)c2)C1` [Compound 313], the EC50 in the assay on W2 strain came to 4 nM; with 3D7 P. falciparum strain, 20 nM.

As for `C[C@H](N)C(=O)N1CCn2c(nc(-c3ccc(F)cc3)c2Nc2ccc(Cl)c(F)c2)C1` [Compound 314], the results for the EC50 in the assay on W2 strain and in the assay on 3D7 P. falciparum strain were 20 nM and 30 nM, respectively.

Regarding `N[C@@H](Cc1cscn1)C(=O)N1CCn2c(nc(-c3ccc(F)cc3)c2Nc2ccc(Cl)c(F)c2)C1` [Compound 315], the EC50 in the assay with W2 strain is 8 nM; with 3D7 P. falciparum strain, 20 nM.

Consider `N[C@@H](Cc1ccc(F)cc1)C(=O)N1CCn2c(nc(-c3ccc(F)cc3)c2Nc2ccc(Cl)c(F)c2)C1` [Compound 316], for which the EC50 turned out to be 14 nM in the assay on W2 strain and 20 nM in the assay with 3D7 P. falciparum strain.

Take `CC(C)[C@@H](N)C(=O)N1CCn2c(nc(-c3ccc(F)cc3)c2Nc2ccc(Cl)c(F)c2)C1` [Compound 318]: the 50% effective concentration (EC50) in the assay on W2 strain was 98 nM; in the assay on 3D7 P. falciparum strain, 150 nM.

On to `N[C@@H](Cc1ccc(F)c(F)c1)C(=O)N1CCn2c(nc(-c3ccc(F)cc3)c2Nc2ccc(Cl)c(F)c2)C1` [Compound 319], for which the EC50 in the assay with W2 strain was 27 nM; with 3D7 P. falciparum strain, 40 nM.

For `CNC(C)(C)C(=O)N1CCn2c(nc(-c3ccc(F)cc3)c2Nc2ccc(Cl)c(F)c2)C1` [Compound 320], the EC50 is 103 nM in the assay on W2 strain and 170 nM with 3D7 P. falciparum strain.

Regarding `O=C([C@@H]1CCN1)N1CCn2c(nc(-c3ccc(F)cc3)c2Nc2ccc(Cl)c(F)c2)C1` [Compound 321], the EC50 came to 11 nM in the assay on W2 strain and 20 nM in the assay on 3D7 P. falciparum strain.

In the case of `O=C(C1COCCN1)N1CCn2c(nc(-c3ccc(F)cc3)c2Nc2ccc(Cl)c(F)c2)C1` (centres unmarked) [Compound 323], the EC50 in the assay with W2 strain turned out to be 1330 nM; with 3D7 P. falciparum strain, 1730 nM.

For `N[C@@H](Cc1ccccc1)C(=O)N1CCn2c(nc(-c3ccc(F)cc3)c2Nc2ccc(Cl)c(F)c2)C1` [Compound 324], the EC50 in the assay with W2 strain and with 3D7 P. falciparum strain was 30 nM in each case.

In the case of `N[C@@H](CC1CCC1)C(=O)N1CCn2c(nc(-c3ccc(F)cc3)c2Nc2ccc(Cl)c(F)c2)C1` [Compound 325], the figures for the EC50 in the assay on W2 strain and in the assay with 3D7 P. falciparum strain were 29 nM and 30 nM, respectively.

Consider `CC(C)(C)[C@H](N)C(=O)N1CCn2c(nc(-c3ccc(F)cc3)c2Nc2ccc(Cl)c(F)c2)C1` [Compound 326], for which the results for the EC50 with W2 strain and with 3D7 P. falciparum strain were 22 nM and 30 nM, respectively.

Regarding `C[C@@H](N)C(=O)N1CCn2c(nc(-c3ccc(F)cc3)c2Nc2ccc(Cl)c(F)c2)C1` [Compound 327], the results for the EC50 in the assay on W2 strain and in the assay with 3D7 P. falciparum strain were 21 nM and 30 nM, respectively.

With `N#Cc1ccc(C[C@H](N)C(=O)N2CCn3c(nc(-c4ccc(F)cc4)c3Nc3ccc(Cl)c(F)c3)C2)cc1` [Compound 328], the EC50 was 229 nM with W2 strain and 340 nM with 3D7 P. falciparum strain.

As for `Cc1ccc(Nc2c(-c3ccc(F)cc3)nc3n2CC(C)NC3)cc1` (centres unmarked) [Compound 329], the 50% effective concentration (EC50) came out at 116 nM in the assay on W2 strain and 150 nM in the assay with 3D7 P. falciparum strain.

In the case of `Cc1ccc(Nc2c(-c3ccncc3)nc3n2CCNC3)cc1` [Compound 354], the values for the EC50 in the assay on W2 strain and in the assay on 3D7 P. falciparum strain were 564 nM and 6320 nM, respectively.

For `Cc1ccc(Nc2c(-c3ccc(F)cc3)nc3n2CCN(C(=O)C(Nc2ccc(C(F)(F)F)cc2Cl)C(C)C)C3)cc1` (centres unmarked) [Compound 355], the figures for the EC50 in the assay with W2 strain and with 3D7 P. falciparum strain were 2270 nM and 2810 nM, respectively.

As for `O=C([C@H]1CCCO1)N1CCn2c(nc(-c3ccc(F)cc3)c2Nc2ccc(Cl)c(F)c2)C1` [Compound 356], the EC50 stood at 872 nM in the assay on W2 strain and 1260 nM in the assay on 3D7 P. falciparum strain.

For `Cn1cc(CC(=O)N2CCn3c(nc(-c4ccc(F)cc4)c3Nc3ccc(Cl)c(F)c3)C2)c2ccccc21` [Compound 357], the EC50 in the assay on W2 strain is 4710 nM; in the assay with 3D7 P. falciparum strain, 7490 nM.

For `CC(C)C[C@H](O)C(=O)N1CCn2c(nc(-c3ccc(F)cc3)c2Nc2ccc(Cl)c(F)c2)C1` [Compound 358], the concentration for a half-maximal effect (EC50) with W2 strain came to 49 nM; in the assay with 3D7 P. falciparum strain, 130 nM.
